Laboratory results reported in patent publication US20230372221A1, “USE OF THIOPYRIDINONE COMPOUNDS FOR PREVENTING THE FORMATION OF CUTANEOUS BLACKHEADS” (L'OREAL, priority 2020, published 2023).

System: oxidation of the L-DOPA under the action of the bacterial extract (intracellular extract of Cutibacterium acnes CIP 53.117)
Assay: In vitro evaluation of the ability to inhibit the development of the colour (absorbance at 475 nm of L-DOPA + Cutibacterium acnes extract)
Format: biochemical
Settings: for inhibiting the development of the colour (result in words): compared with Reference (absence of treatment); for optical density at 475 nm: 32° C.; for % inhib (percentage of inhibition of the formation of the coloured product): from initial rate of oxidation between 10 and 40 minutes vs reference composition
Excerpt: This method is based on the measurement of absorbance, over time, carried out directly on a composition formed of a mixture of intracellular extract of bacteria of Cutibacterium acnes type, of 3,4-dihydroxy-L-phenylalanine (L-DOPA) and of a test compound. The measurements are compared with those carried out for a mixture of an intracellular extract of bacteria of Cutibacterium acnes type and of 3,4-dihydroxy-L-phenylalanine (L-DOPA), in the absence of test compound (reference). The method is adapted from a method for the enzymatic assay of the tyrosinase activity (Behbahani et al., Microchemical Journal (1993), 47, 251), which is based on the absorbance properties at 475 nm of a coloured intermediate of the pathway for the biosynthesis of melanin starting from L-DOPA, namely dopachrome, a product of the oxidation of L-DOPA. An intracellular extract of bacteria of Cutibacterium acnes CIP 53.117 type stored at 4° C. in the lyophilized form is suspended in 1×PBS (supplied by Gibco BRL Life Technologies) at a concentration of 6 mg/ml. A solution of L-DOPA at a concentration of 0.5 mg/ml is prepared by bringing together L-DOPA (supplied by Sigma-Aldrich) and milliQ water, so as to have an L-DOPA concentration of 1 mg/ml, then diluting with 1×PBS (Dulbecco's Phosphate Buffered Saline, supplied by Gibco BRL Life Technologies). The mixture of 50 μl of these two solutions and of 100 μl of 1×PBS (Dulbecco's Phosphate Buffered Saline, supplied by Gibco BRL Life Technologies) results in a composition with a total volume of 200 μl containing L-DOPA (at a concentration of 125 μg/ml) and Cutibacterium acnes extract (at a concentration of 1.5 mg/ml). The test compositions and the reference composition are introduced separately into wells of a 96-well microplate suitable for reading in visible spectrophotometry, and placed at a temperature of 32° C. The formation of a coloured product is monitored over time by spectrophotometry. To do this, the absorbance, or optical density (O.D.), is measured at 475 nm from the time 0 to the time 2 hours by means of a Spectra Max M5e reader and the Spectra Max software (the time 0 corresponds to the introduction of the composition into the wells). The ability to inhibit the development of the colour of a given compound was assessed by comparing the absorbance measurements obtained for the test compositions with those obtained for the reference composition. More specifically, the inhibitory effect of the test compound was evaluated by comparing the initial rate of oxidation of the L-DOPA under the action of the bacterial extract at 475 nm for the test composition with that of the reference composition in order to obtain a corresponding percentage of inhibition. In practice, the initial rate (Vi) of the oxidation reaction is calculated from the linear part of the curve of the graph of the absorbance values. As this part lies between 10 and 40 minutes (see the graph in FIG. 1), the initial rate of the oxidation reaction is determined using the following relationship: [formula] The percentage of inhibition (% inhib) of a given compound with regard to the formation of the coloured product is subsequently obtained using the values of the initial rate of the oxidation reaction for the reference composition (Viref) and for the test composition ([…]) according to the following relationship: [formula] Within the meaning of the invention, a compound is regarded as having an inhibitory effect if the % inhib value is at least 15%.

[1] = test compound 12.5 μM, duration 0 minutes
[2] = test compound 12.5 μM, duration 10 minutes
[3] = test compound 12.5 μM, duration 20 minutes
[4] = test compound 12.5 μM, duration 30 minutes
[5] = test compound 12.5 μM, duration 40 minutes
[6] = test compound 12.5 μM, duration 60 minutes
[7] = test compound 12.5 μM, duration 80 minutes
[8] = test compound 12.5 μM, duration 100 minutes
[9] = test compound 12.5 μM, duration 120 minutes
[10] = test compound 25 μM, duration 0 minutes
[11] = test compound 25 μM, duration 10 minutes
[12] = test compound 25 μM, duration 20 minutes
[13] = test compound 25 μM, duration 30 minutes
[14] = test compound 25 μM, duration 40 minutes
[15] = test compound 25 μM, duration 60 minutes
[16] = test compound 25 μM, duration 80 minutes
[17] = test compound 25 μM, duration 100 minutes
[18] = test compound 25 μM, duration 120 minutes
[19] = test compound 50 μM, duration 0 minutes
[20] = test compound 50 μM, duration 10 minutes
[21] = test compound 50 μM, duration 20 minutes
[22] = test compound 50 μM, duration 30 minutes
[23] = test compound 50 μM, duration 40 minutes
[24] = test compound 50 μM, duration 60 minutes
[25] = test compound 50 μM, duration 80 minutes
[26] = test compound 50 μM, duration 100 minutes
[27] = test compound 50 μM, duration 120 minutes
[28] = test compound 100 μM, duration 0 minutes
[29] = test compound 100 μM, duration 10 minutes
[30] = test compound 100 μM, duration 20 minutes
[31] = test compound 100 μM, duration 30 minutes
[32] = test compound 100 μM, duration 40 minutes
[33] = test compound 100 μM, duration 60 minutes
[34] = test compound 100 μM, duration 80 minutes
[35] = test compound 100 μM, duration 100 minutes
[36] = test compound 100 μM, duration 120 minutes

CN(CC(=O)O)C(=O)c1ccc[nH]c1=S [Compound 3, N-methyl-N-[(2-thioxo-1,2-dihydropyridin-3-yl)carbonyl]glycine]
inhibiting the development of the colour (result in words): very effective
optical density at 475 nm [1]: 0.0555
optical density at 475 nm [2]: 0.0565
optical density at 475 nm [3]: 0.0575
optical density at 475 nm [4]: 0.0595
optical density at 475 nm [5]: 0.0613
optical density at 475 nm [6]: 0.0647
optical density at 475 nm [7]: 0.0677
optical density at 475 nm [8]: 0.0686
optical density at 475 nm [9]: 0.0694
% inhib (percentage of inhibition of the formation of the coloured product) (test compound 12.5 μM): 39%
optical density at 475 nm [10]: 0.0549
optical density at 475 nm [11]: 0.0569
optical density at 475 nm [12]: 0.0578
optical density at 475 nm [13]: 0.0594
optical density at 475 nm [14]: 0.0607
optical density at 475 nm [15]: 0.0630
optical density at 475 nm [16]: 0.0651
optical density at 475 nm [17]: 0.0664
optical density at 475 nm [18]: 0.0677
% inhib (percentage of inhibition of the formation of the coloured product) (test compound 25 μM): 51%
optical density at 475 nm [19]: 0.0539
optical density at 475 nm [20]: 0.0561
optical density at 475 nm [21]: 0.0575
optical density at 475 nm [22]: 0.0587
optical density at 475 nm [23]: 0.0594
optical density at 475 nm [24]: 0.0609
optical density at 475 nm [25]: 0.0623
optical density at 475 nm [26]: 0.0632
optical density at 475 nm [27]: 0.0639
% inhib (percentage of inhibition of the formation of the coloured product) (test compound 50 μM): 58%
optical density at 475 nm [28]: 0.0579
optical density at 475 nm [29]: 0.0606
optical density at 475 nm [30]: 0.0612
optical density at 475 nm [31]: 0.0619
optical density at 475 nm [32]: 0.0623
optical density at 475 nm [33]: 0.0618
optical density at 475 nm [34]: 0.0606
optical density at 475 nm [35]: 0.0605
optical density at 475 nm [36]: 0.0609
% inhib (percentage of inhibition of the formation of the coloured product) (test compound 100 μM): 78%

CCOC(=O)CN(C)C(=O)c1ccc[nH]c1=S [Compound 4, Ethyl N-methyl-N-[(2-thioxo-1,2-dihydropyridin-3-yl)carbonyl]glycinate]
inhibiting the development of the colour (result in words): very effective
optical density at 475 nm [1]: 0.0550
optical density at 475 nm [2]: 0.0571
optical density at 475 nm [3]: 0.0585
optical density at 475 nm [4]: 0.0604
optical density at 475 nm [5]: 0.0627
optical density at 475 nm [6]: 0.0659
optical density at 475 nm [7]: 0.0679
optical density at 475 nm [8]: 0.0696
optical density at 475 nm [9]: 0.0709
% inhib (percentage of inhibition of the formation of the coloured product) (test compound 12.5 μM): 43%
optical density at 475 nm [10]: 0.0573
optical density at 475 nm [11]: 0.0586
optical density at 475 nm [12]: 0.0595
optical density at 475 nm [13]: 0.0609
optical density at 475 nm [14]: 0.0623
optical density at 475 nm [15]: 0.0650
optical density at 475 nm [16]: 0.0682
optical density at 475 nm [17]: 0.0695
optical density at 475 nm [18]: 0.0703
% inhib (percentage of inhibition of the formation of the coloured product) (test compound 25 μM): 63%
optical density at 475 nm [19]: 0.0558
optical density at 475 nm [20]: 0.0574
optical density at 475 nm [21]: 0.0580
optical density at 475 nm [22]: 0.0591
optical density at 475 nm [23]: 0.0599
optical density at 475 nm [24]: 0.0617
optical density at 475 nm [25]: 0.0634
optical density at 475 nm [26]: 0.0654
optical density at 475 nm [27]: 0.0666
% inhib (percentage of inhibition of the formation of the coloured product) (test compound 50 μM): 75%
optical density at 475 nm [28]: 0.0578
optical density at 475 nm [29]: 0.0579
optical density at 475 nm [30]: 0.0593
optical density at 475 nm [31]: 0.0601
optical density at 475 nm [32]: 0.0608
optical density at 475 nm [33]: 0.0618
optical density at 475 nm [34]: 0.0623
optical density at 475 nm [35]: 0.0627
optical density at 475 nm [36]: 0.0631
% inhib (percentage of inhibition of the formation of the coloured product) (test compound 100 μM): 71%

CCCCc1ccc(O)cc1O [Lucinol, 4-butylresorcinol, reference compound]
inhibiting the development of the colour (result in words): does not make it possible to inhibit the development of the colour
inhibiting the development of the colour (result in words) (listed as lucinol): without effect
optical density at 475 nm [28]: 0.0552
optical density at 475 nm [29]: 0.0563
optical density at 475 nm [30]: 0.0591
optical density at 475 nm [31]: 0.0629
optical density at 475 nm [32]: 0.0671
optical density at 475 nm [33]: 0.0730
optical density at 475 nm [34]: 0.0758
optical density at 475 nm [35]: 0.0768
optical density at 475 nm [36]: 0.0765
% inhib (percentage of inhibition of the formation of the coloured product) (test compound 100 μM): 0%

O=C(O)CNC(=O)c1ccc[nH]c1=S [Compound 2, N-[(2-thioxo-1,2-dihydropyridin-3-yl)carbonyl]glycine]
inhibiting the development of the colour (result in words): very effective
optical density at 475 nm [28]: 0.0547
optical density at 475 nm [29]: 0.0561
optical density at 475 nm [30]: 0.0567
optical density at 475 nm [31]: 0.0569
optical density at 475 nm [32]: 0.0574
optical density at 475 nm [33]: 0.0578
optical density at 475 nm [34]: 0.0578
optical density at 475 nm [35]: 0.0578
optical density at 475 nm [36]: 0.0580
% inhib (percentage of inhibition of the formation of the coloured product) (test compound 100 μM): 84%
